Values quoted from earlier work in patent publication US20100183739A1, “Treatment and prevention of systemic bacterial infections in plants using antimicrobial metal compositions” (priority 2009, published 2010).

System: bacteria
Details: Appl Environ Microbiol. 2008; 74(7): 2171-2178

SMILES: [Ag+] [silver ion]
- silver ion concentration for inhibition of bacterial growth: below 5 ppm
